Measured values as given in publication PMC11044139, “Comparative Study of Toxic Terpenoidal Aldehydes and Lactone Derivatives from the European Polypore Bondarzewia mesenterica” (ACS Omega, 2024).
Values joined by “and” are separate entries in the source; they are usually repeats but may differ in a detail not shown here. Equal values may be shown once. Read-outs that look alike come from different tables or passages of the source.

Tests used:
[1] = test system: Chromobacterium violaceum (DSM 30191); assay: Antimicrobial assay (MIC), C. violaceum; format: cell-based; settings: overnight incubation, n.i. = no inhibition up to 67 μg/mL
Description: (§1) The antimicrobial effects of the isolated compounds were determined using our established protocols.[19] Generally, an array of clinically relevant microorganisms consisting of bacteria, namely, S. aureus (DSM 346), A. baumanii (DSM 30008), B. subtilis (DSM 10), E. coli (DSM 1116), P. aeruginosa (PA14), C. violaceum (DSM 30191), and M. smegmatis (ATCC 700084), and fungi including M. hiemalis (DSM 2656), C. albicans (DSM 1665), R. glutinis (DSM 10134), S. pombe (DSM 70572), and P. anomala (DSM 6766), were used. […] The minimum inhibitory concentrations (MIC) were recorded after an overnight incubation as the lowest concentration under which no microbial growth was visualized. The microorganisms were obtained from the German Collection of Microorganisms and Cell Cultures (DSMZ, Braunschweig, Germany).

[2] = test system: human breast adenocarcinoma (MCF-7); assay: Cytotoxicity (MTT) assay, MCF-7; format: cell-based
From the text: (§2) MTT (3-(4,5-dimethylthiayol-2-yl)-2,5-diphenyltetrazolium bromide)-based assay was used to determine in vitro cytotoxicity as previously reported.[24] The tested mammalian cell lines included mouse fibroblasts (L929), endocervical adenocarcinoma (KB3.1), human lung carcinoma (A549), breast adenocarcinoma (MCF-7), prostate carcinoma (PC-3), and epidermoid carcinoma cells (A431). Epothilone B was used as a positive control.

[3] = test system: Escherichia coli (DSM 1116); assay: Antimicrobial assay (MIC), E. coli; format: cell-based; settings: overnight incubation, n.i. = no inhibition up to 67 μg/mL
Description: as §1

[4] = test system: Mycobacterium smegmatis (ATCC 700084); assay: Antimicrobial assay (MIC), M. smegmatis; format: cell-based
Description: as §1

[5] = test system: Rhodotorula glutinis (DSM 10134); assay: Antimicrobial assay (MIC), R. glutinis; format: cell-based
Description: as §1

[6] = test system: Acinetobacter baumanii (DSM 30008); assay: Antimicrobial assay (MIC), A. baumanii; format: cell-based; settings: overnight incubation, n.i. = no inhibition up to 67 μg/mL
Description: as §1

[7] = test system: human ovarian cancer (SKOV-3); assay: Cytotoxicity (MTT) assay, SKOV-3; format: cell-based
[8] = set-up: method as in doi:10.1021/np50038a013; settings: previous report; cited from earlier work
[9] = test system: human endocervical adenocarcinoma (KB3.1); assay: Cytotoxicity (MTT) assay, KB3.1; format: cell-based; settings: for IC50: Homo sapiens, KB 3-1, n.a. = no activity
From the text: as §2, with “(A431).” for “(A431). Epothilone B was used as a positive control.”

[10] = test system: Pseudomonas aeruginosa (PA14); assay: Antimicrobial assay (MIC), P. aeruginosa; format: cell-based; settings: overnight incubation, n.i. = no inhibition up to 67 μg/mL
Description: as §1

[11] = test system: Candida albicans (DSM 1665); assay: Antimicrobial assay (MIC), C. albicans; format: cell-based
Description: as §1

[12] = test system: human lung carcinoma (A549); assay: Cytotoxicity (MTT) assay, A549; format: cell-based
From the text: as §2

[13] = test system: Mucor hiemalis (DSM 2656); assay: Antimicrobial assay (MIC), M. hiemalis; format: cell-based
Description: as §1

[14] = test system: Bacillus subtilis (DSM 10); assay: Antimicrobial assay (MIC), B. subtilis; format: cell-based
Description: as §1

[15] = test system: human epidermoid carcinoma (A431); assay: Cytotoxicity (MTT) assay, A431; format: cell-based
From the text: as §2

[16] = test system: Pichia anomala (DSM 6766); assay: Antimicrobial assay (MIC), P. anomala; format: cell-based
Description: as §1

[17] = test system: human prostate carcinoma (PC-3); assay: Cytotoxicity (MTT) assay, PC-3; format: cell-based
From the text: as §2

all tested cell lines = assay: Cytotoxicity (MTT) assay, all tested cell lines; format: cell-based; settings: read-out: IC50 values, range against all tested cell lines
From the text: as §2

[18] = test system: Schizosaccharomyces pombe (DSM 70572); assay: Antimicrobial assay (MIC), S. pombe; format: cell-based
Description: as §1

[19] = test system: Staphylococcus aureus (DSM 346); assay: Antimicrobial assay (MIC), S. aureus; format: cell-based
Description: as §1

mouse fibroblast (L929) = assay: Cytotoxicity (MTT) assay, L929; format: cell-based; settings: for IC50: Mus musculus, n.a. = no activity
From the text: as §2, with “(A431).” for “(A431). Epothilone B was used as a positive control.”

[20] = SK-OV-3, SKOV-3, read-out: IC50
[21] = Mycobacterium smegmatis, overnight incubation, n.i. = no inhibition up to 67 μg/mL
[22] = overnight incubation, n.i. = no inhibition up to 67 μg/mL
[23] = Pichia anomala, overnight incubation, n.i. = no inhibition up to 67 μg/mL
[24] = DSM346, overnight incubation, n.i. = no inhibition up to 67 μg/mL, read-out: MIC
[25] = DSM2656, overnight incubation, n.i. = no inhibition up to 67 μg/mL, read-out: MIC
[26] = DSM10, overnight incubation, n.i. = no inhibition up to 67 μg/mL, read-out: MIC

CC1(C)CC2C=C(C=O)[C@]3(C=O)C[C@]3(C)C2C1 (single isomer, unassigned; (+)) [Compound 8, (+)-isovelleral]
revealed mutagenicity: mutagenicity [8]
10.3 µM: IC50 [9] | IC50 (mouse fibroblast (L929))
2800 nM: IC50 ([2]; MCF7, MCF-7, read-out: IC50)
2.8 to 30.2 µM: IC50 (all tested cell lines)
3.9 µM: IC50 ([17]; PC-3, read-out: IC50)
33.3 µg/mL: MIC ([4]; Mycolicibacterium smegmatis, ATCC700084) | MIC ([11]; DSM1665) | MIC ([14]; DSM10) | MIC ([18]; DSM70572) | MIC ([19]; DSM346)
3.4 µM: IC50 ([15]; A-431, A431, read-out: IC50)
8.3 µg/mL: MIC ([13]; DSM2656)
n.i.: MIC [1] | MIC [3] | MIC [6] | MIC [10]
30.2 µM: IC50 ([12]; A549, read-out: IC50)
16.6 µg/mL: MIC ([5]; DSM10134) | MIC ([16]; Hansenula anomala, DSM6766)
5.2 µM: IC50 [7, 20]

CC(C)=CCC(CC1=CC(=O)OC1)C(=O)O (stereo not shown) [Compound 2, vibralactones J]
n.i.: MIC [1] | MIC [3] | MIC [4, 21] | MIC [5, 22] | MIC [6] | MIC [10] | MIC [11, 22] | MIC [13, 22] | MIC [14, 22] | MIC [16, 23] | MIC [18, 22] | MIC [19, 22]

CC(C)=CCC(/C=C(\CO)CCO)C(=O)O (stereo not shown) [Compound 3, sterepinic acid A]
n.i.: MIC [1] | MIC [3] | MIC [4, 21] | MIC [5, 22] | MIC [6] | MIC [10] | MIC [11, 22] | MIC [13, 22] | MIC [14, 22] | MIC [16, 23] | MIC [18, 22]
non-cytotoxic: cytotoxicity (in words) [9] | cytotoxicity (in words) (mouse fibroblast (L929))
66.6 µg/mL: MIC [19, 24]

CC(C)(O)[C@H]1C[C@@H](CC2=CC(=O)OC2)C(=O)O1 [Compound 4, vibralactones Z1]
n.i.: MIC [1] | MIC [3] | MIC [4, 21] | MIC [5, 22] | MIC [6] | MIC [10] | MIC [11, 22] | MIC [13, 22] | MIC [14, 22] | MIC [16, 23] | MIC [18, 22] | MIC [19, 22]

CC(C)(O)[C@H]1C[C@H](CC2=CC(=O)OC2)C(=O)O1 [Compound 5, vibralactones Z2]
66.6 µg/mL: MIC [19, 24]
non-cytotoxic: cytotoxicity (in words) [9] | cytotoxicity (in words) (mouse fibroblast (L929))
n.i.: MIC [1] | MIC [3] | MIC [4, 21] | MIC [5, 22] | MIC [6] | MIC [10] | MIC [11, 22] | MIC [13, 22] | MIC [14, 22] | MIC [16, 23] | MIC [18, 22]

CC(C)=CC[C@H]1C=C(CO)C=COC1=O [Compound 6, 1,5-secovibralactone]
n.i.: MIC [1] | MIC [3] | MIC [4, 21] | MIC [5, 22] | MIC [6] | MIC [10] | MIC [11, 22] | MIC [14, 22] | MIC [16, 23] | MIC [18, 22] | MIC [19, 22]
66.6 µg/mL: MIC [13, 25]

CC(=O)O[C@@H]1CC2C3=C(C(C)C)CC[C@]3(C)CC[C@@]2(C)[C@@H](OC2OC[C@@H](O)[C@H](O)[C@H]2O)C=C1C=O (stereo partly shown) [Compound 7, erinacine P]
3.3 to 14.2 µM and 3.5 to 14.2 µM: IC50 (all tested cell lines; range over all tested cell lines)
3.5 µM: IC50 ([15]; A-431, A431, read-out: IC50)
3300 nM: IC50 ([2]; MCF7, MCF-7, read-out: IC50)
4.9 µM: IC50 ([17]; PC-3, read-out: IC50)
13 µM: IC50 (mouse fibroblast (L929))
n.i.: MIC [1] | MIC [3] | MIC [4, 21] | MIC [6] | MIC [10] | MIC [11, 22] | MIC [16, 23] | MIC [18, 22]
7.7 µM: IC50 [7, 20]
5.1 µM: IC50 [9]
14.2 µM: IC50 ([12]; A549, read-out: IC50)
33.3 µg/mL: MIC [14, 26]
16.6 µg/mL: MIC ([5]; DSM10134, overnight incubation, n.i. = no inhibition up to 67 μg/mL, read-out: MIC)
66.6 µg/mL: MIC [13, 25] | MIC [19, 24]

COc1ccc([C@H](O)[C@H](C)O)cc1 [Compound 11, (4-methoxyphenyl)-1,2-propanediol]
n.i.: MIC [1] | MIC [3] | MIC [4, 21] | MIC [5, 22] | MIC [6] | MIC [10] | MIC [11, 22] | MIC [13, 22] | MIC [14, 22] | MIC [16, 23] | MIC [18, 22] | MIC [19, 22]

COc1ccc(C(=O)C(C)O)cc1 (stereo not shown) [Compound 12, 2-hydroxy-(4′-methoxy)-propiophenone]
n.i.: MIC [1] | MIC [3] | MIC [4, 21] | MIC [5, 22] | MIC [6] | MIC [10] | MIC [11, 22] | MIC [13, 22] | MIC [14, 22] | MIC [16, 23] | MIC [18, 22] | MIC [19, 22]

C/C(=C\c1csc(C)n1)[C@@H]1C[C@@H]2O[C@]2(C)CCC[C@H](C)[C@H](O)[C@@H](C)C(=O)C(C)(C)[C@@H](O)CC(=O)O1 [epothilone B, Epothilone B, reference compound]
9e-05 µM: IC50 ([7]; SK-OV-3, read-out: IC50, positive control epothilone B) | IC50 ([17]; PC-3, read-out: IC50, positive control epothilone B)
6e-05 µM: IC50 ([15]; A-431, read-out: IC50, positive control epothilone B)
5e-05 µM: IC50 ([12]; A549, read-out: IC50, positive control epothilone B)
0.07 nM: IC50 ([2]; MCF7, read-out: IC50, positive control epothilone B)

NC[C@H]1O[C@H](O[C@H]2[C@H](O)[C@@H](O[C@H]3O[C@H](CO)[C@@H](O)[C@H](N)[C@H]3O)[C@H](N)C[C@@H]2N)[C@H](O)[C@@H](O)[C@@H]1O [kanamycin, reference compound]
1.70^K μg/mL: MIC [4, 21]

C[C@@H]1[C@H](O)[C@@H](C)/C=C/C=C/CC/C=C/C=C/C=C/C=C/C(O[C@H]2O[C@H](C)[C@@H](O)[C@H](N)[C@@H]2O)CC2O[C@](O)(CC(O)C(O)CCC(O)CC(O)CC(O)CC(=O)O[C@H]1C)CC(O)C2C(=O)O (stereo partly shown) [nystatin, reference compound]
8.30^N μg/mL: MIC [11, 22] | MIC [13, 22] | MIC [16, 23] | MIC [18, 22]
4.20^N μg/mL: MIC [5, 22]

CN(C)[C@@H]1C(O)=C(C(N)=O)C(=O)[C@@]2(O)C(O)=C3C(=O)c4c(O)cccc4[C@@](C)(O)[C@H]3[C@H](O)[C@@H]12 [oxytetracycline, reference compound]
16.6 µg/mL: MIC [14, 26]

Gentamycin [reference compound]
0.83^G μg/mL: MIC [3]
0.42^G μg/mL: MIC [10] | MIC [19, 22]
1.67^G μg/mL: MIC [1]
